Reference: patent publication US5807860A, “Urea derivatives” (Mitsubishi Chemical Corporation, priority 1995, dated 1998)
Where a name gives a salt, the structure may show the parent alone.

Tests used:
ACAT of HepG2 cells = target: T1, ACAT of HepG2 cells (Homo sapiens, UniProt P35610); experiment: Inhibitory activity against ACAT of HepG2 cells derived from human liver cancer cells; type: cell-based; settings: radio-labelled oleic acid/BSA complex, cholesterol oleate produced
T1 construct: endogenous in cells; host or cells: HepG2
T1 sequence (P35610 1-550): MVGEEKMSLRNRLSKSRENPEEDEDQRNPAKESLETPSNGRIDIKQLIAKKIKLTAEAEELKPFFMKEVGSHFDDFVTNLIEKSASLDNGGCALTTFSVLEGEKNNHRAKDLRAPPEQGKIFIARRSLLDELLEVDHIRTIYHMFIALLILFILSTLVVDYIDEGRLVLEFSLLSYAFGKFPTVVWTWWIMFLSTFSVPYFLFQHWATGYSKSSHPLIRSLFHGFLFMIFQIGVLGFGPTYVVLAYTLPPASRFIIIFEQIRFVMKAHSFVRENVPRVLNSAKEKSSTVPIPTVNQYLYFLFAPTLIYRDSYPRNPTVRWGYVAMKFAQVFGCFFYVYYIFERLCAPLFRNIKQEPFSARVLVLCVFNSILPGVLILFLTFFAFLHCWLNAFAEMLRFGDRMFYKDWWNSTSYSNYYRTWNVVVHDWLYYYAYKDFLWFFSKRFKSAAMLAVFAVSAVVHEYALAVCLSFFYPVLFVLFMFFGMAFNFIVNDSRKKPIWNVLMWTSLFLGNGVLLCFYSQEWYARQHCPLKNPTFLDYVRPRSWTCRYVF
Description: Inhibitory Activity against ACAT of HepG2 cells Derived from Human Liver Cancer Cells Inhibitory activities of the compounds of the present invention against ACAT were measured by the method described below. HepG2 cells derived from human liver cancer cells were used for the measurement of the ACAT activity. A complex of radio-labelled oleic acid and bovine serum albumin was added to a culture of the cells, and the activity was measured by observing the amount of radio-labelled cholesterol oleate produced from the radio-labelled oleic acid in the cells.

[1] = target: T2, ACAT in foamed macrophages (Mus musculus, UniProt Q61263); experiment: Inhibitory activity against ACAT derived from foamed macrophages; type: cell-based, mouse (ddY female mice); settings: foamed macrophages from ddY female mice; acetylated LDL, 24 hours; cholesterol oleate produced; read-out: Inhibitory activity against ACAT, Macrophage (IC50)
T2 construct: endogenous in cells; host or cells: peritoneal macrophages of ddY female mice, foamed with acetylated LDL
T2 sequence (Q61263 1-540): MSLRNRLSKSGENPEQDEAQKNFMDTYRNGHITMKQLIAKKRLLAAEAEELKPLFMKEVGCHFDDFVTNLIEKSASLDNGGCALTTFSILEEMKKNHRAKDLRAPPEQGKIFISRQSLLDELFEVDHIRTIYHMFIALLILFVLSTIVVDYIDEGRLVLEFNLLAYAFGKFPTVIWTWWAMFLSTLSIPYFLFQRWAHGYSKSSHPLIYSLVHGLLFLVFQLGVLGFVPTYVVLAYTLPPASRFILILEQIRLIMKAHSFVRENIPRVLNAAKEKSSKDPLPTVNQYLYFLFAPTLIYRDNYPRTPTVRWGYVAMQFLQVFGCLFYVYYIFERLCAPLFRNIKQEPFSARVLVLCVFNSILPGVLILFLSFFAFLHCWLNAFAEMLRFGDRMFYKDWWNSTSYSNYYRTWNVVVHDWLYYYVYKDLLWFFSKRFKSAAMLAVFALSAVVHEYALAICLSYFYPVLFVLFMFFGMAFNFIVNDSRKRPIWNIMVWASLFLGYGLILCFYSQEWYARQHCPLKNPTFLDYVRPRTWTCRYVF
Description: Inhibitory Activity against ACAT Derived from Foamed Macrophages
Inhibitory activity of the compounds of the present invention against ACAT in foamed macrophages was measured by the methods set out below. Acetylated low density lipoprotein was added to macrophages taken from abdominal cavities of ddY female mice and the cells were incubated for 24 hours to obtain foaming macrophages. These cells accumulated a large amount of cholesterol (ester) inside the cells, and are used as a model of arteriosclerosis lesion. ACAT activity of the cells was determined by adding a complex of radio-labelled oleic acid and bovine serum albumin to the cell culture, and observing the amount of radio-labelled cholesterol oleate that was produced from the radio-labelled oleic acid in the cells. The inhibitory activities of the compounds of the present invention against ACAT were measured as follows: percent reduction rates of enzymatic activity by the addition of given concentrations of test compounds was observed on the basis of the amount of the produced cholesterol oleate in the control group without the addition of a test compound, and by using the results, IC50, i.e., concentrations of tested compounds required to inhibit 50% of the enzyme activity, was calculated.

| IC50 (ACAT of HepG2 cells) | IC50 [1] | SMILES |
| --- | --- | --- |
| 128 nM | – | CCCCCN(Cc1cc(-n2ccnc2)ccc1OC)C(=O)Nc1c(C)cccc1OCCCN1CCN(c2ccccc2)CC1 [Example 1, N-{5-(1-imidazolyl)-2-methoxyphenyl}methyl-N-(1-pentyl)-N'-[2-{3-(4-phenyl-1-piperazinyl)propoxy}-6-methylphenyl]urea] |
| 101 nM | 131 nM | CCCCCN(Cc1cc(-n2ccnc2)ccc1OC)C(=O)Nc1c(C)cccc1OCCCN1CCN(c2ccccc2)CC1 [Example 2, N-{5-(1-imidazolyl)-2-methoxyphenyl}methyl-N-(1-pentyl)-N'-[2-{3-(4-phenyl-1-piperazinyl)propoxy}-6-methyphenyl]urea trihydrochloride] |
| 414 nM | – | CCCCCCCN(Cc1cccc(OC)c1OCc1ccccc1)C(=O)Nc1c(OCCCN2CCN(c3ccccc3)CC2)ccc2c1CCCC2 [Example 8] |
| 366 nM | – | COc1cccc(CN(CCCc2ccccc2)C(=O)Nc2c(OCCCN3CCN(c4ccccc4)CC3)ccc3c2CCCC3)c1OCc1ccccc1 [Example 9] |
| 389 nM | – | CCCCCN(Cc1ccc(-n2ccnc2)cc1)C(=O)Nc1c(OCCCN2CCN(c3ccccc3)CC2)ccc2c1CCCC2 [Example 10] |
| 189 nM | – | CCCCCN(Cc1ccc(-n2ccnc2)cc1)C(=O)Nc1c(C)cccc1OCCCN1CCN(c2ccccc2)CC1 [Example 11] |
| 595 nM | – | CCCCCN(Cc1ccc(-n2ccnc2)cc1)C(=O)Nc1c(C)cccc1OCCCN1CCN(c2ccccn2)CC1 [Example 12] |
| 67 nM | – | COc1ccc(-n2ccnc2)cc1CN(Cc1ccccc1)C(=O)Nc1c(OCCCN2CCN(c3ccccc3)CC2)ccc2c1CCCC2 [Example 13] |
| 240 nM | – | COc1ccc(-n2ccnc2)cc1CN(Cc1ccccc1)C(=O)Nc1c(C)cccc1OCCCN1CCN(c2ccccc2)CC1 [Example 14] |
| 516 nM | – | CCCCCN(Cc1ccccc1-n1ccnc1)C(=O)Nc1c(C)cccc1OCCCN1CCN(c2ccccc2)CC1 [Example 15] |
| 363 nM | – | CCCCCN(Cc1cc(-n2ccnc2)ccc1OC)C(=O)Nc1c(C)cccc1OCCCN1CCN(c2ccccn2)CC1 [Example 17] |
| 164 nM | 440 nM | CCCCCN(Cc1cc(-n2ccnc2)ccc1OC)C(=O)Nc1c(C)cccc1OCCN1CCN(c2ccccc2)CC1 [Example 18] |
| 156 nM | – | CCCN(Cc1cc(-n2ccnc2)ccc1OC)C(=O)Nc1c(C)cccc1OCCCN1CCN(c2ccccc2)CC1 [Example 19] |
| 851 nM | – | CCCCCN(Cc1cc(-n2ccnc2)cc(OC)c1OC)C(=O)Nc1c(C)cccc1OCCCN1CCN(c2ccccc2)CC1 [Example 20] |
| 634 nM | – | CCCN(Cc1cc(-n2ccnc2)cc2c1OCO2)C(=O)Nc1c(C)cccc1OCCCN1CCN(c2ccccc2)CC1 [Example 23] |
| 449 nM | – | CCCCCN(Cc1cc(-n2ccnc2)cc2c1OCO2)C(=O)Nc1c(C)cccc1OCCCN1CCN(c2ccccc2)CC1 [Example 24] |
| 743 nM | – | CCCCCN(Cc1cccc(OC)c1OCc1ccccn1)C(=O)Nc1c(C)cccc1OCCCN1CCN(c2ccccc2)CC1 [Example 26] |
| 732 nM | – | CCCCCN(Cc1cccc(OC)c1OCc1ccccn1)C(=O)Nc1c(OCCCN2CCN(c3ccccc3)CC2)ccc2c1CCCC2 [Example 28] |
| 234 nM | – | CCCCCN(Cc1cc(-n2ccnc2)ccc1OCc1ccccn1)C(=O)Nc1c(C)cccc1OCCCN1CCN(c2ccccc2)CC1 [Example 30] |
| 138 nM | – | CCCCCN(Cc1cc(-n2ccnc2)ccc1OCc1ccccn1)C(=O)Nc1c(C)cccc1OCCCN1CCN(c2ccccc2)CC1 [Example 31] |
| 600 nM | – | CCCCCN(Cc1ccccc1OCc1ccccn1)C(=O)Nc1c(C)cccc1OCCCN1CCN(c2ccccc2)CC1 [Example 32] |
| 89 nM | 119 nM | CCCCCN(Cc1ccc(OCc2ccccn2)cc1)C(=O)Nc1c(C)cccc1OCCCN1CCN(c2ccccc2)CC1 [Example 34] |

| IC50 (ACAT of HepG2 cells) | IC50 [1] | SMILES |
| --- | --- | --- |
| 270 nM | – | CCCCCN(Cc1cccc(OCc2ccccn2)c1)C(=O)Nc1c(C)cccc1OCCCN1CCN(c2ccccc2)CC1 [Example 36] |
| 220 nM | – | CCCCCN(Cc1cccc(-n2ccnc2)c1)C(=O)Nc1c(C)cccc1OCCCN1CCN(c2ccccc2)CC1 [Example 37] |
| 282 nM | – | CCCCCN(Cc1ccc(-n2ccnc2)cc1)C(=O)Nc1c(C)cccc1OCCCN1CCN(c2ccccc2)CC1 [Example 38] |
| 320 nM | – | CCCCCN(Cc1ccc(OC)cc1OCc1ccccn1)C(=O)Nc1c(C)cccc1OCCCN1CCN(c2ccccc2)CC1 [Example 40] |
| 400 nM | – | CCCCCN(Cc1ccc(OCc2ccccn2)c(OC)c1)C(=O)Nc1c(C)cccc1OCCCN1CCN(c2ccccc2)CC1 [Example 44] |
| 76 nM | – | CCCCCN(CCc1ccc(-n2ccnc2)c(OC)c1)C(=O)Nc1c(C)cccc1OCCCN1CCN(c2ccccc2)CC1 [Example 46] |
| 81 nM | – | CCCCCN(Cc1cc(-n2cccn2)ccc1OC)C(=O)Nc1c(C)cccc1OCCCN1CCN(c2ccccc2)CC1 [Example 47] |
| 45 nM | – | CCCCCN(Cc1cc(-n2cncn2)ccc1OC)C(=O)Nc1c(C)cccc1OCCCN1CCN(c2ccccc2)CC1 [Example 49] |
| 606 nM | – | CCCCCN(CCc1cc(-n2ccnc2)cc2c1OCO2)C(=O)Nc1c(C)cccc1OCCCN1CCN(c2ccccc2)CC1 [Example 53] |
| 483 nM | – | CCCCCN(Cc1cc(-n2cccc2)ccc1OC)C(=O)Nc1c(C)cccc1OCCCN1CCN(c2ccccc2)CC1 [Example 55] |
| 54 nM | – | CCCCCN(CCc1cc(-n2ccnc2)ccc1OC)C(=O)Nc1c(C)cccc1OCCCN1CCN(c2ccccc2)CC1 [Example 56] |
| 220 nM | – | CCCCCN(Cc1cc(OC)ccc1-n1ccnc1)C(=O)Nc1c(C)cccc1OCCCN1CCN(c2ccccc2)CC1 [Example 57] |
| 584 nM | 1050 nM | CCCCCN(Cc1ccc(OC)c(-n2ccnc2)c1)C(=O)Nc1c(C)cccc1OCCCN1CCN(c2ccccc2)CC1 [Example 58] |
| 124 nM | – | O=C(Nc1c(OCCCN2CCN(c3ccccc3)CC2)ccc2c1CCCC2)N(CCCc1ccccc1)Cc1ccccc1OCc1ccccn1 [Example 67] |
| 187 nM | – | CCCN(Cc1ccccc1OCc1ccccn1)C(=O)Nc1c(OCCCN2CCN(c3ccccc3)CC2)ccc2c1CCCC2 [Example 68] |
| 289 nM | – | CCCN(Cc1ccccc1OCc1cccnc1)C(=O)Nc1c(OCCCN2CCN(c3ccccc3)CC2)ccc2c1CCCC2 [Example 69] |
| 631 nM | – | CCCN(Cc1ccccc1OCc1ccncc1)C(=O)Nc1c(OCCCN2CCN(c3ccccc3)CC2)ccc2c1CCCC2 [Example 70] |
| 635 nM | – | CN(Cc1ccccc1OCc1ccccn1)C(=O)Nc1c(OCCCN2CCN(c3ccccc3)CC2)ccc2c1CCCC2 [Example 71] |
| 262 nM | – | COc1ccc(-n2ccnc2)cc1CN(C(=O)Nc1c(C)cccc1OCCCN1CCN(c2ccccc2)CC1)C1CCCC1 [Example 72] |
| 458 nM | – | COc1ccc(-n2ccnc2)cc1CN(CC(C)C)C(=O)Nc1c(C)cccc1OCCCN1CCN(c2ccccc2)CC1 [Example 73] |
| 386 nM | – | COc1ccc(-n2ccnc2)cc1CN(C(=O)Nc1c(C)cccc1OCCCN1CCN(c2ccccc2)CC1)C(C)C [Example 74] |
